Values quoted from earlier work as cited in patent US9339034B2, “Use of thaxtomin for selective control of rice and aquatic based weeds” (MARRONE BIO INNOVATIONS, INC., priority 2009, dated 2016).

System: weeds
Conditions: in vivo; cited from earlier work

C=C(CO)C(C)(O)CC(=O)O (stereo not shown) [mevalocidin]
time to kill weeds: 3-4 weeks
